ChEMBL document CHEMBL5625177, “Recent advance of small-molecule drugs for clinical treatment of osteoporosis: A review” (Eur J Med Chem, 2023)

System: Rattus norvegicus
Assay: Anti-hypertensive activity in fructose fed-induced hypertensive rat assessed as increase in ionized calcium level in serum at 20 mg/kg administered once daily for 28 days
Type: functional
Details: time 28 day

In the case of `C=C1/C(=C\C=C2/CCC[C@]3(C)[C@@H]([C@H](C)CCCC(C)(C)O)CC[C@@H]23)C[C@@H](O)C[C@@H]1O` [CALCITRIOL], the Activity is reported as 1.44 mM.
